Structures can show the parent of a compound that is named as a salt.
Key:
[1] = test system: human HL-60 promyelocytic leukemia xenograft; assay: HL-60 xenograft in SCID mice; conditions: for median TTE (time to endpoint): control median TTE 11.0 days
Method: Nude-athymic mice were maintained in accordance with the Institutional Animal Care and Use Committee procedures and guidelines.
The medium was supplemented with 10% heat-inactivated fetal bovine serum and 2 mM glutamine.
The human HL-60 promyelocytic leukemia cells used for implantation were harvested during log phase growth and resuspended in phosphate-buffered saline at 8.0×10^7 cells/mL. Each mouse was injected s.c. in the right flank with 1.6×10^7 cells (0.2 mL cell suspension). Tumors were monitored twice weekly and then daily as their volumes approached 100 mm^3. […] Tumor size, in mm3, was calculated as: Tumor Volume=w2×l, where w=width and l=length in mm of the tumor. Tumor weight can be estimated with the assumption that 1 mg is equivalent to 1 mm3 of tumor volume.
The agent was given dose at 5 mg/kg once every day (qd) and every other day (q2d) to endpoint. Treatments began on Day 1 (D1) in groups of male SCID mice (n=6) bearing established (˜444.4 mm3) subcutaneous tumors. […] Logrank tests determine significance of the differences between TTE values for drug-treated and control mice, at P≦0.05.

PIM1 = PIM1 (Homo sapiens, UniProt P11309); assay: Kinome inhibition assay; type: biochemical
Method: (§1) Kinome inhibition studies were conducted following the procedures described in literature. […] In general, each purified kinase was incubated with its substrate in buffer (MOPS buffer or HEPES buffer) containing an essential metal co-enzyme or cofactor, antioxidant, and ATP (gamma-P^32 radio-labeled ATP or cold ATP). Compound 2 was co-incubated with the kinase solution thus obtained for 0.5-1 hr at 37° C. The reaction was stopped by boiling the reaction solution with an extra SDS solution. The phosphorylation level of the substrate was monitored ether by quantification of the radio-labeled substrate or by quantification of phosphor-substrate specific antibodies. In each study, a reference standard was run as an integral part to ensure the validity of the experimental results obtained. The table below includes the IC50 values obtained from this experiment.

AKT1 (PRKBA) = AKT1 (PRKBA) (Homo sapiens, UniProt P31749); assay: Kinome inhibition assay; type: biochemical
Method: as §1

SRPK1 = SRPK1 (Homo sapiens, UniProt Q96SB4); assay: Kinome inhibition assay; type: biochemical
Method: as §1

SGK2 = SGK2 (Homo sapiens, UniProt Q9HBY8); assay: Kinome inhibition assay; type: biochemical
SGK2, sequence (Q9HBY8 whole entry): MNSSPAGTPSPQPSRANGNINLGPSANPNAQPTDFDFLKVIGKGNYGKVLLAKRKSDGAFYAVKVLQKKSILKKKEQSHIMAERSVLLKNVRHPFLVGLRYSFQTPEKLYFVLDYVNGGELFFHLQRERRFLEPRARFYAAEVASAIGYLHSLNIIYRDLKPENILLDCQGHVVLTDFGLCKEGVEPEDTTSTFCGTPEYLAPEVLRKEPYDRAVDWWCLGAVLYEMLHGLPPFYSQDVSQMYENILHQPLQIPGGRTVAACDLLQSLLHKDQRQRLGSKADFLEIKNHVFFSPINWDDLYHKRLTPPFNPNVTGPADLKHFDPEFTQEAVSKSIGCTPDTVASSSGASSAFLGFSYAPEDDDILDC
Method: as §1

MAPK8 (JNK1) = MAPK8 (JNK1) (Homo sapiens, UniProt P45983); assay: Kinome inhibition assay; type: biochemical
Method: as §1

CDC42BPB = CDC42BPB (Homo sapiens, UniProt Q9Y5S2); assay: Kinome inhibition assay; type: biochemical
CDC42BPB, sequence (Q9Y5S2 whole entry): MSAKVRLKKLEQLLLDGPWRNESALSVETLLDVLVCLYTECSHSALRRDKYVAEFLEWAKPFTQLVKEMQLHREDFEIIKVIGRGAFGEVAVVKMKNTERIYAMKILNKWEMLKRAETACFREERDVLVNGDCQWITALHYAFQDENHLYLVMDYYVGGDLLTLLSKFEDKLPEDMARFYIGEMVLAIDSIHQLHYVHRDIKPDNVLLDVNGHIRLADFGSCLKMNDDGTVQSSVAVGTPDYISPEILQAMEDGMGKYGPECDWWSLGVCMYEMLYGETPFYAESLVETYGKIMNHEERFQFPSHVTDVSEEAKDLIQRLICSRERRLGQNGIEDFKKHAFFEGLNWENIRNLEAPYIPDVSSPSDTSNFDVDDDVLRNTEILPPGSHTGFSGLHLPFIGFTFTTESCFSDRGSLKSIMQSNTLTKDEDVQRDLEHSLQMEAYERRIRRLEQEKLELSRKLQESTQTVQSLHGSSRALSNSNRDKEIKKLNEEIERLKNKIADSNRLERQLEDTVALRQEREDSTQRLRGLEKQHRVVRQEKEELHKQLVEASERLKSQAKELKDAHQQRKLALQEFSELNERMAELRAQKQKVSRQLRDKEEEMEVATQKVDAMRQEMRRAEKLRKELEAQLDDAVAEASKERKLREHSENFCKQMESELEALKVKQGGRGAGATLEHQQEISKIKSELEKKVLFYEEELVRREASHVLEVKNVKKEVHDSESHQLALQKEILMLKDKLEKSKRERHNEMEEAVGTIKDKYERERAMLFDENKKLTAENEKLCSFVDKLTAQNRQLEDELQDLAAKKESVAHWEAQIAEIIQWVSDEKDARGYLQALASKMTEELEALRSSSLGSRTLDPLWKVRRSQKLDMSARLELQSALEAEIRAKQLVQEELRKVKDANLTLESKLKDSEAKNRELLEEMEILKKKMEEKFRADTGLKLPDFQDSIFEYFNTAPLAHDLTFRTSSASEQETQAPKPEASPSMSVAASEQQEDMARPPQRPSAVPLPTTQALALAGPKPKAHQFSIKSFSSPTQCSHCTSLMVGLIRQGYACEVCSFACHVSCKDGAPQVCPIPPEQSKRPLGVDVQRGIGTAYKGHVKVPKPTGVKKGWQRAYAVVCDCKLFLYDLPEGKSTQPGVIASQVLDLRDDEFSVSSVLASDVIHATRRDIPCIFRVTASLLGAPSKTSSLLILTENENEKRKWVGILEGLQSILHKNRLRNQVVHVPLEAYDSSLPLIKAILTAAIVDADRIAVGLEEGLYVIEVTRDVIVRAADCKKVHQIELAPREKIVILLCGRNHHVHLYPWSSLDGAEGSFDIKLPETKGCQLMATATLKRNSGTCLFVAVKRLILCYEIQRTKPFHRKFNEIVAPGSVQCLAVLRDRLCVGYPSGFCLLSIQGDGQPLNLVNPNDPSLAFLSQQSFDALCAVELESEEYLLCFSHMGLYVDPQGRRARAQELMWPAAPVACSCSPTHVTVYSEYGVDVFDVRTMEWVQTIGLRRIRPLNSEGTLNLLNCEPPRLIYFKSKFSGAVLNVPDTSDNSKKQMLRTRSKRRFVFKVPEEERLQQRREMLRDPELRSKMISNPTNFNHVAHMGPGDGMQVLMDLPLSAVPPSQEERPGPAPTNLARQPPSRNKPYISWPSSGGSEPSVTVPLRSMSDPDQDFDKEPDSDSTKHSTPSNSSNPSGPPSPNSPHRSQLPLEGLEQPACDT
Method: as §1

GSK3B = GSK3B (Homo sapiens, UniProt P49841); assay: Kinome inhibition assay; type: biochemical
Method: as §1

MET (HGFR) = MET (HGFR) (Homo sapiens, UniProt P08581); assay: Kinome inhibition assay; type: biochemical
Method: as §1

SGK1 = SGK1 (Homo sapiens, UniProt O00141); assay: Kinome inhibition assay; type: biochemical
Method: as §1

RP56KA5 (MSK1) = RP56KA5 (MSK1) (Homo sapiens, UniProt O75582); assay: Kinome inhibition assay; type: biochemical
RP56KA5 (MSK1), sequence (O75582 whole entry): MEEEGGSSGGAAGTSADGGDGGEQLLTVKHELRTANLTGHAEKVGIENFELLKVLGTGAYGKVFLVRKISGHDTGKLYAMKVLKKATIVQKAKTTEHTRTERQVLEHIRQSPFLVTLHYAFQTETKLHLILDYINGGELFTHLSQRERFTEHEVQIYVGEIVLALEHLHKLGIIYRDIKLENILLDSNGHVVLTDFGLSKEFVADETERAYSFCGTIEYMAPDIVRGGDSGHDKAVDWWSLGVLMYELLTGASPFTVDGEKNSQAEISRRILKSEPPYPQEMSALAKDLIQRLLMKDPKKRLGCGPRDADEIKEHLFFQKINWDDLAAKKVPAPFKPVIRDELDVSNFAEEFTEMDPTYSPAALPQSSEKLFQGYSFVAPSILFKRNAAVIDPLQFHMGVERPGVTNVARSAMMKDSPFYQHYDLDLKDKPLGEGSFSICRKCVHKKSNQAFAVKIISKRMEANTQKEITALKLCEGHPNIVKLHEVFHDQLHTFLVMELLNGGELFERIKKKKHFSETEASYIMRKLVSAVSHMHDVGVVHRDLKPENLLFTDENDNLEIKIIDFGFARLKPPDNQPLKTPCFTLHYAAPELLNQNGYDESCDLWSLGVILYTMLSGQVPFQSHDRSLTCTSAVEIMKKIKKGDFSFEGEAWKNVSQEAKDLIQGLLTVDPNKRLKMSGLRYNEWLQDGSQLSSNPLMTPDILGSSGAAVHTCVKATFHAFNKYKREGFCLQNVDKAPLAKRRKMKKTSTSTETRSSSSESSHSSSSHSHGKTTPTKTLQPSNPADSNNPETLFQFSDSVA
Method: as §1

AURKA (Aurora-A) = AURKA (Aurora-A) (Homo sapiens, UniProt O14965); assay: Kinome inhibition assay; type: biochemical
Method: as §1

FER (TYK3) = FER (TYK3) (Homo sapiens, UniProt P16591); assay: Kinome inhibition assay; type: biochemical
FER (TYK3), sequence (P16591 whole entry): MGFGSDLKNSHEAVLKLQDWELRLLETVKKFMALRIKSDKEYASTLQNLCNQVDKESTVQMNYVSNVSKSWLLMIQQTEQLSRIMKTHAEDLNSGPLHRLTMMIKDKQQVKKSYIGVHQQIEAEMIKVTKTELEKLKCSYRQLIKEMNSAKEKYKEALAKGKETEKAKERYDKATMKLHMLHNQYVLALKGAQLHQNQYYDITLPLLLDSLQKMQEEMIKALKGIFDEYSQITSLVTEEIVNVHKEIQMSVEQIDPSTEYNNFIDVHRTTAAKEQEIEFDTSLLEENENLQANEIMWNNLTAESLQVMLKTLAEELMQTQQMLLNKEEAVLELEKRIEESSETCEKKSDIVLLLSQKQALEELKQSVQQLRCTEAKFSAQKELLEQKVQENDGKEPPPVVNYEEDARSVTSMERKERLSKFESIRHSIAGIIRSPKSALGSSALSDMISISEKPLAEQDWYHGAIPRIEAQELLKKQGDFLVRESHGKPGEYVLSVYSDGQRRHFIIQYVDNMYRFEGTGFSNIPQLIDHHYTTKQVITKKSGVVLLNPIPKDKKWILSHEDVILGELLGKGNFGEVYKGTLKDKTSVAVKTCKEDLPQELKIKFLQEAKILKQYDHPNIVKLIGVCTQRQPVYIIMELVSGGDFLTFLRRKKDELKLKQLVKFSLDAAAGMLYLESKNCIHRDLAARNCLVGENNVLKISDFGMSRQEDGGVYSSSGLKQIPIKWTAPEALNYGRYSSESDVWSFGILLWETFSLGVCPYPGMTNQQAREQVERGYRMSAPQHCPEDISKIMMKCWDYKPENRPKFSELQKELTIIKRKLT
Method: as §1

NTRK1 (TRKA) = NTRK1 (TRKA) (Homo sapiens, UniProt P04629); assay: Kinome inhibition assay; type: biochemical
Method: as §1

PDK1 = PDK1 (Homo sapiens, UniProt O15530); assay: Kinome inhibition assay; type: biochemical
Method: as §1

Insulin Receptor = Insulin Receptor (Homo sapiens, UniProt P06213); assay: Kinome inhibition assay; type: biochemical
Method: as §1

CAMK2D (KCC2D) = CAMK2D (KCC2D) (Homo sapiens, UniProt Q13557); assay: Kinome inhibition assay; type: biochemical
Method: as §1

RET = RET (Homo sapiens, UniProt P07949); assay: Kinome inhibition assay; type: biochemical
RET, sequence (P07949 29-1114): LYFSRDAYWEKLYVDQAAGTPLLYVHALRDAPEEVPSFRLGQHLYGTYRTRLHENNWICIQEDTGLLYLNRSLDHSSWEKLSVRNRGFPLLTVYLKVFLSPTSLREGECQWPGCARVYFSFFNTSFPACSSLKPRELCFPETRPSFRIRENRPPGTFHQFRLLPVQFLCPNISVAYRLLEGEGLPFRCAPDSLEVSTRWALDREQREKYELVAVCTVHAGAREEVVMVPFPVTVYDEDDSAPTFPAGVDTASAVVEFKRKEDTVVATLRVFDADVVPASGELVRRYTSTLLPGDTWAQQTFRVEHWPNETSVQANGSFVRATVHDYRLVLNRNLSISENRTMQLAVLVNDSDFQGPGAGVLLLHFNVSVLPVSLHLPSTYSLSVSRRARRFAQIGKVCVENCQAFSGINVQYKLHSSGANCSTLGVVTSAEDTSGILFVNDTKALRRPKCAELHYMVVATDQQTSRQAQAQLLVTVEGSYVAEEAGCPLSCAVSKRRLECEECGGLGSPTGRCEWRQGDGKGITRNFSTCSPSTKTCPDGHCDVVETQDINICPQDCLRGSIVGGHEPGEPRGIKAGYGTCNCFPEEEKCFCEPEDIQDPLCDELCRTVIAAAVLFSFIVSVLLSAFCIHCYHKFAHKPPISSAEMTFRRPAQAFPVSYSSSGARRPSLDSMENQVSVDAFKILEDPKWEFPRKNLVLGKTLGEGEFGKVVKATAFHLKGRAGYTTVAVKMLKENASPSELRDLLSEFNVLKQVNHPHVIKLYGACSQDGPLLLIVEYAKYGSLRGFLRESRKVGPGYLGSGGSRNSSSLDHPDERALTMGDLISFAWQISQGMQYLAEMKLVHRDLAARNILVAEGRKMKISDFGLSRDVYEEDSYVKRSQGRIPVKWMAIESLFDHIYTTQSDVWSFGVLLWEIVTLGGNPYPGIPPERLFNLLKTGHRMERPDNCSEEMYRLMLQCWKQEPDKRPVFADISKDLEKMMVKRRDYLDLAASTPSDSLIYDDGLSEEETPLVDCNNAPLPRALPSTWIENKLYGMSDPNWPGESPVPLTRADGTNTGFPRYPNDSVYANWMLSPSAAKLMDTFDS
Method: as §1

ERBB2 (HER2) = ERBB2 (HER2) (Homo sapiens, UniProt P04626); assay: Kinome inhibition assay; type: biochemical
Method: as §1

ABL1 = ABL1 (Mus musculus, UniProt P00520); assay: Kinome inhibition assay; type: biochemical
Method: as §1

LMK1 = LMK1 (Homo sapiens, UniProt P53667); assay: Kinome inhibition assay; type: biochemical
Method: as §1

[2] = 5 mg/kg p.o. every other day (q2d)
[3] = @ 30 μM, read-out: Single dose inhibition
[4] = @ 10 μM, read-out: Single dose inhibition

PIM1, sequence (P11309 whole entry): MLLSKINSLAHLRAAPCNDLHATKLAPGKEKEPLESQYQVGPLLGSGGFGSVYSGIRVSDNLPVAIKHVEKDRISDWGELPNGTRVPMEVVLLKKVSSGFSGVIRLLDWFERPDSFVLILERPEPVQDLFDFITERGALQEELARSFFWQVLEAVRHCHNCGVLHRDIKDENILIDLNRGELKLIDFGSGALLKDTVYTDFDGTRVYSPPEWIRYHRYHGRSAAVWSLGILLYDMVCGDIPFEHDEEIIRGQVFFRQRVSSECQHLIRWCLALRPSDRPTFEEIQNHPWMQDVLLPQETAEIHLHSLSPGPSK

With `O=c1[nH]/c(=C\c2ccc(OCc3ccncc3)cn2)c(=O)[nH]/c1=C\c1ccccc1` [Compound 2, 3-benzylidene-6-((5-(pyridin-4-ylmethoxy)pyridin-2-yl)methylene)piperazine-2,5-dione methanesulfonic acid salt] the “% TGD (percent tumor growth delay)” value [1, 2] was 120%, the “T−C” value [1, 2] was 13.2 days and the “median TTE (time to endpoint)” value [1, 2] was 24.2 days. The “maximum BW loss” value ([1]; 5 mg/kg p.o. every other day (q2d), on day 8) was 4.2%, the “% TGD (percent tumor growth delay)” value ([1]; 5 mg/kg p.o. once a day (qd)) was 29% and the “T−C” value ([1]; 5 mg/kg p.o. once a day (qd)) was 3.2 days. For the same compound, the “median TTE (time to endpoint)” value ([1]; 5 mg/kg p.o. once a day (qd)) was 14.2 days, the treatment related deaths ([1]; 5 mg/kg p.o. once a day (qd), n=6) was “Two” and the “maximum BW loss” value ([1]; 5 mg/kg p.o. once a day (qd), on day 11) was 1.9%. For the same compound, the inhibition at 30 µM (PIM1; [3]) was 98%, the IC50 (PIM1; PIM1, Human) was 9.52 µM and the inhibition at 10 µM (AKT1 (PRKBA); [4]) was 93%. For the same compound, the IC50 (AKT1 (PRKBA); AKT1 (PRKBA), Human) was 3.93 µM, the inhibition at 10 µM (SRPK1; [4]) was 61% and the IC50 (SRPK1; SRPK1, Human) was 10.6 µM. It also gave an inhibition at 10 µM (SGK2; [4]) of 78%, an IC50 (SGK2; SGK2, Human) of 3.55 µM and an inhibition at 10 µM (MAPK8 (JNK1); [4]) of 74%. The IC50 (MAPK8 (JNK1); MAPK8 (JNK1), Human) was 4.79 µM, the inhibition at 10 µM (CDC42BPB; [4]) was 52% and the IC50 (CDC42BPB; CDC42BPB, Human) was 8.18 µM. For the same compound, the inhibition at 30 µM (GSK3B; [3]) was 69%, the IC50 (GSK3B; GSK3B, Human) was 10.9 µM and the inhibition at 30 µM (MET (HGFR); [3]) was 79%. It also gave an IC50 (MET (HGFR); MET (HGFR), Human) of 12.3 µM, an inhibition at 10 µM (SGK1; [4]) of 83% and an IC50 (SGK1; SGK1, Human) of 2920 nM. It also gave an inhibition at 10 µM (RP56KA5 (MSK1); [4]) of 53%, an IC50 (RP56KA5 (MSK1); RP56KA5 (MSK1), Human) of 7.88 µM and an inhibition at 30 µM (AURKA (Aurora-A); [3]) of 73%. For the same compound, the IC50 (AURKA (Aurora-A); AURKA (Aurora-A), Human) was 13.7 µM, the inhibition at 10 µM (FER (TYK3); [4]) was 55% and the IC50 (FER (TYK3); FER (TYK3), Human) was 7.23 µM. For the same compound, the inhibition at 30 µM (NTRK1 (TRKA); [3]) was 66%, the IC50 (NTRK1 (TRKA); NTRK1 (TRKA), Human) was 17.4 µM and the inhibition at 10 µM (PDK1; [4]) was 59%. It also gave an IC50 (PDK1; PDK1, Human) of 8.18 µM, an inhibition at 3 µM (Insulin Receptor; @ 3 μM, read-out: Single dose inhibition) of 70% and an IC50 (Insulin Receptor; Insulin Receptor, Human) of 1830 nM. For the same compound, the inhibition at 10 µM (CAMK2D (KCC2D); [4]) was 70%, the IC50 (CAMK2D (KCC2D); CAMK2D (KCC2D), Human) was 7.39 µM and the inhibition at 10 µM (RET; [4]) was 73%. For the same compound, the IC50 (RET; RET, Human) was 4.89 µM, the inhibition at 10 µM (ERBB2 (HER2); [4]) was 69% and the IC50 (ERBB2 (HER2); ERBB2 (HER2), Human) was 5.56 µM. For the same compound, the inhibition at 10 µM (ABL1; [4]) was 90%, the IC50 (ABL1; ABL1, Mouse) was 3.17 µM and the inhibition at 10 µM (LMK1; [4]) was 68%. It also gave an IC50 (LMK1; LMK1, Human) of 5.8 µM.

From US8710062B2, “Piperazinedione compounds” (Taipei Medical University, priority 2011, dated 2014)
